{
  "source": "patent US10799475B2",
  "about": "“Substituted phenyl aziridine precursor analogs for inhibiting androgen-independent prostate cancer cell growth” (Northwestern University, priority 2007, dated 2020)",
  "target": "T1, GR (Homo sapiens, UniProt P04150)",
  "T1 sequence (P04150 1-777)": "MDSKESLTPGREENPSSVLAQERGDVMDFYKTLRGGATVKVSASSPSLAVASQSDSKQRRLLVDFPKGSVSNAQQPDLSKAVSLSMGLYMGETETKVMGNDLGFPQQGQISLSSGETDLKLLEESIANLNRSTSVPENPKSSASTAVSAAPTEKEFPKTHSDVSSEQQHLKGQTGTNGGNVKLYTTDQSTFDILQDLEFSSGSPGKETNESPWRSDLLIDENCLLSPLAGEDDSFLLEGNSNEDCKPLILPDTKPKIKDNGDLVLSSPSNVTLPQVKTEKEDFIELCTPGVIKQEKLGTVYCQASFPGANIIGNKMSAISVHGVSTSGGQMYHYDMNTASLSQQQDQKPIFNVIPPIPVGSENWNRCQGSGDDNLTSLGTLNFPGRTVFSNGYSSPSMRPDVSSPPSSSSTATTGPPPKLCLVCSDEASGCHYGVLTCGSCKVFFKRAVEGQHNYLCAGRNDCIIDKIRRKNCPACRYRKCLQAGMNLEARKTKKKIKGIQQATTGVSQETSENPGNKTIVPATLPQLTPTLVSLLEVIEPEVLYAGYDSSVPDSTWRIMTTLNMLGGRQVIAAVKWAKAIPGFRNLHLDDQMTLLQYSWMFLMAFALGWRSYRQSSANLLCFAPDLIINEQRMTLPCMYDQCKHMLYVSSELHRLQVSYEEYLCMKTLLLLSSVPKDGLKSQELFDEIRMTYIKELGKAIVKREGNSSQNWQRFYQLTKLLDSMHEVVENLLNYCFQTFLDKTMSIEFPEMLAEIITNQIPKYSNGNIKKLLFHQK",
  "assay": "TAT.Luc dual Luciferase assay of GR transactivation in PC cells",
  "format": "cell-based",
  "design": "expressed in transfected cells; host or cells: LNCaP-GR (lentiviral GR); also DU145 and PC3 (endogenous GR)",
  "details": "PC cells, 24 hours",
  "method": "FIG. 3. Effect of CpdA on GR function in PC cells. A. & B. CpdA-activated GR nuclear translocation. Cells were treated with CpdA, glucocorticoid FA, or anti-glucocorticoid RU486. Panel A (immunofluorescence). Panel B (Western blotting of nuclear protein using HDAC-1 and β-tubulin as protein loading controls). C. CpdA decreased GR-DNA binding (EMSA, nuclear proteins). LNCaP-GR cells were treated with 0.01% DMSO (control), Dex (10^−7 M) or CpdA (10^−5 M) for 4 hours. D. & E. CpdA effect on GR function. PC cells were transiently transfected with TAT.Luc (D) or κB.Luc (E), and control Renilla Luciferase reporters, treated with Dex (10^−6 M) or CpdA (10^−5 M) for 24 hours. For activation of NF-κB, cells were co-transfected with CMV.IKKβ plasmid (in panel E). Reporter activity was assessed by dual Luciferase assay and presented as factor of change.\nFIG. 4. CpdA effect on GR function. A. & B. PC cells were transiently transfected with TAT.Luc (A) or κB.Luc (B), and control Renilla Luciferase reporters. Cells were treated with Dex (10^−6 M) and CpdA (10^−5 M) for 24 hours. For activation of NF-κB (as shown in panel B), cells were co-transfected with CMV.IKKβ plasmid. Reporter activity was assessed by dual Luciferase assay and presented as factor of change. […]",
  "data": [
    {"smiles": "CC1(C)O[C@@H]2C[C@H]3[C@@H]4C[C@H](F)C5=CC(=O)C=C[C@]5(C)[C@@]4(F)[C@@H](O)C[C@]3(C)[C@]2(C(=O)CO)O1", "note": "[FA, fluocinolone acetonide, reference compound]", "values": [
      {"measurement": "induction of TAT.Luc reporter activity", "value": "10-15 folds"}
    ]}
  ]
}
